From the supplement of paper PMC13207355

Key:
Settings in all cases: exposure time: 72 h
FT3469 [1] = normal neural stem cell line; assay: surviving fraction (nuclei count normalised to DMSO); higher = more cells surviving (less toxic)
E28 [2] = patient-derived glioblastoma stem cells of classical subtype; assay: as above
E31 [3] = patient-derived glioblastoma stem cells of proneural subtype; assay: as above
E34 [4] = patient-derived glioblastoma stem cells of proneural subtype; assay: as above
E57 [5] = patient-derived glioblastoma stem cells of mesenchymal subtype; assay: as above
E21 [6] = patient-derived glioblastoma stem cells of mesenchymal subtype; assay: as above
E13 [7] = patient-derived glioblastoma stem cells of classical subtype; assay: as above
FT3469 [8] = assay: phenotypic distance (Euclidean, principal components) from DMSO controls (arbitrary units); higher = stronger morphological change
E28 [9] = assay: as above
E31 [10] = assay: as above
E34 [11] = assay: as above
E57 [12] = assay: as above
E21 [13] = assay: as above
E13 [14] = assay: as above
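Wherever phenotypic distance (Euclidean, principal components) from DMSO controls is given: cell Painting imaging in 384-well plates, CellProfiler features reduced to at least 20 principal components, Euclidean distance versus same-plate DMSO vehicle wells (0.1% v/v), median over six images per well.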
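Wherever surviving fraction (nuclei count normalised to DMSO) is given: nuclei counted by high-content imaging of Hoechst-stained cells in laminin-coated 384-well plates, relative to 0.1% DMSO vehicle wells, with staurosporine as cell-death control.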

O=[N+]([O-])c1ccc2c(c1)S(=O)(=O)C=C2 [Stattic]
surviving fraction (FT3469 [1]; 4.11523 nM): 0.815 | surviving fraction (FT3469 [1]; 12.34567901 nM): 0.831 | surviving fraction (FT3469 [1]; 37.037 nM): 0.86 | surviving fraction (FT3469 [1]; 111.1111111 nM): 0.73 | surviving fraction (FT3469 [1]; 333.333 nM): 0.627 | surviving fraction (FT3469 [1]; 1000 nM): 0.263 | surviving fraction (FT3469 [1]; 3000 nM): 0.0263 | surviving fraction (E28 [2]; 4.11523 nM): 1.06 | surviving fraction (E28 [2]; 12.34567901 nM): 0.809 | surviving fraction (E28 [2]; 37.037 nM): 0.932 | surviving fraction (E28 [2]; 111.1111111 nM): 0.745 | surviving fraction (E28 [2]; 333.333 nM): 0.566 | surviving fraction (E28 [2]; 1000 nM): 0.0457 | surviving fraction (E28 [2]; 3000 nM): 0.00486 | surviving fraction (E31 [3]; 4.11523 nM): 0.993 | surviving fraction (E31 [3]; 12.34567901 nM): 0.809 | surviving fraction (E31 [3]; 37.037 nM): 0.852 | surviving fraction (E31 [3]; 111.1111111 nM): 0.608 | surviving fraction (E31 [3]; 333.333 nM): 0.395 | surviving fraction (E31 [3]; 1000 nM): 0.00296 | surviving fraction (E31 [3]; 3000 nM): 0.00296 | surviving fraction (E34 [4]; 4.11523 nM): 0.907 | surviving fraction (E34 [4]; 12.34567901 nM): 0.804 | surviving fraction (E34 [4]; 37.037 nM): 0.719 | surviving fraction (E34 [4]; 111.1111111 nM): 0.708 | surviving fraction (E34 [4]; 333.333 nM): 0.568 | surviving fraction (E34 [4]; 1000 nM): 0.223 | surviving fraction (E34 [4]; 3000 nM): 0.00905 | surviving fraction (E57 [5]; 4.11523 nM): 0.876 | surviving fraction (E57 [5]; 12.34567901 nM): 0.843 | surviving fraction (E57 [5]; 37.037 nM): 0.926 | surviving fraction (E57 [5]; 111.1111111 nM): 0.848 | surviving fraction (E57 [5]; 333.333 nM): 0.631 | surviving fraction (E57 [5]; 1000 nM): 0.166 | surviving fraction (E57 [5]; 3000 nM): 0.0847 | surviving fraction (E21 [6]; 4.11523 nM): 0.828 | surviving fraction (E21 [6]; 12.34567901 nM): 0.855 | surviving fraction (E21 [6]; 37.037 nM): 0.849 | surviving fraction (E21 [6]; 111.1111111 nM): 0.728 | surviving fraction (E21 [6]; 333.333 nM): 0.517 | surviving fraction (E21 [6]; 1000 nM): 0.0242 | surviving fraction (E21 [6]; 3000 nM): 0.00527 | surviving fraction (E13 [7]; 4.11523 nM): 0.862 | surviving fraction (E13 [7]; 12.34567901 nM): 0.789 | surviving fraction (E13 [7]; 37.037 nM): 0.891 | surviving fraction (E13 [7]; 111.1111111 nM): 0.753 | surviving fraction (E13 [7]; 333.333 nM): 0.472 | surviving fraction (E13 [7]; 1000 nM): 0.0609 | surviving fraction (E13 [7]; 3000 nM): 0.0209 | phenotypic distance (FT3469 [8]; 4.11523 nM): 1.08 | phenotypic distance (FT3469 [8]; 12.34567901 nM): 1.39 | phenotypic distance (FT3469 [8]; 37.037 nM): 0.934 | phenotypic distance (FT3469 [8]; 111.1111111 nM): 1.86 | phenotypic distance (FT3469 [8]; 333.333 nM): 1.92 | phenotypic distance (FT3469 [8]; 1000 nM): 8.18 | phenotypic distance (FT3469 [8]; 3000 nM): 12.6 | phenotypic distance (E28 [9]; 4.11523 nM): 0.371 | phenotypic distance (E28 [9]; 12.34567901 nM): 0.758 | phenotypic distance (E28 [9]; 37.037 nM): 0.541 | phenotypic distance (E28 [9]; 111.1111111 nM): 0.984 | phenotypic distance (E28 [9]; 333.333 nM): 1.97 | phenotypic distance (E28 [9]; 1000 nM): 7.45 | phenotypic distance (E28 [9]; 3000 nM): 19.2 | phenotypic distance (E31 [10]; 4.11523 nM): 0.51 | phenotypic distance (E31 [10]; 12.34567901 nM): 0.69 | phenotypic distance (E31 [10]; 37.037 nM): 0.645 | phenotypic distance (E31 [10]; 111.1111111 nM): 1.51 | phenotypic distance (E31 [10]; 333.333 nM): 3.02 | phenotypic distance (E31 [10]; 1000 nM): 11.5 | phenotypic distance (E31 [10]; 3000 nM): 12.4 | phenotypic distance (E34 [11]; 4.11523 nM): 0.778 | phenotypic distance (E34 [11]; 12.34567901 nM): 2.75 | phenotypic distance (E34 [11]; 37.037 nM): 1.33 | phenotypic distance (E34 [11]; 111.1111111 nM): 1.29 | phenotypic distance (E34 [11]; 333.333 nM): 1.83 | phenotypic distance (E34 [11]; 1000 nM): 6.7 | phenotypic distance (E34 [11]; 3000 nM): 11.7 | phenotypic distance (E57 [12]; 4.11523 nM): 1.16 | phenotypic distance (E57 [12]; 12.34567901 nM): 1.21 | phenotypic distance (E57 [12]; 37.037 nM): 0.778 | phenotypic distance (E57 [12]; 111.1111111 nM): 1.69 | phenotypic distance (E57 [12]; 333.333 nM): 2.66 | phenotypic distance (E57 [12]; 1000 nM): 6.04 | phenotypic distance (E57 [12]; 3000 nM): 6.85 | phenotypic distance (E21 [13]; 4.11523 nM): 1.03 | phenotypic distance (E21 [13]; 12.34567901 nM): 1.19 | phenotypic distance (E21 [13]; 37.037 nM): 0.697 | phenotypic distance (E21 [13]; 111.1111111 nM): 1.45 | phenotypic distance (E21 [13]; 333.333 nM): 2.92 | phenotypic distance (E21 [13]; 1000 nM): 11.2 | phenotypic distance (E21 [13]; 3000 nM): 10.4 | phenotypic distance (E13 [14]; 4.11523 nM): 0.979 | phenotypic distance (E13 [14]; 12.34567901 nM): 0.957 | phenotypic distance (E13 [14]; 37.037 nM): 0.849 | phenotypic distance (E13 [14]; 111.1111111 nM): 1.68 | phenotypic distance (E13 [14]; 333.333 nM): 3.33 | phenotypic distance (E13 [14]; 1000 nM): 8.57 | phenotypic distance (E13 [14]; 3000 nM): 12.1

Clc1ccc(CSC(Cn2ccnc2)c2ccc(Cl)cc2Cl)cc1 (stereo unspecified) [Sulconazole nitrate]
surviving fraction (FT3469 [1]; 4.1 nM): 0.831 | surviving fraction (FT3469 [1]; 12.3 nM): 1.03 | surviving fraction (FT3469 [1]; 37 nM): 0.945 | surviving fraction (FT3469 [1]; 111.1 nM): 0.801 | surviving fraction (FT3469 [1]; 333.3 nM): 0.934 | surviving fraction (FT3469 [1]; 1000 nM): 0.869 | surviving fraction (FT3469 [1]; 3000 nM): 0.734 | surviving fraction (E28 [2]; 4.1 nM): 0.969 | surviving fraction (E28 [2]; 12.3 nM): 0.978 | surviving fraction (E28 [2]; 37 nM): 0.902 | surviving fraction (E28 [2]; 111.1 nM): 0.886 | surviving fraction (E28 [2]; 333.3 nM): 0.956 | surviving fraction (E28 [2]; 1000 nM): 0.917 | surviving fraction (E28 [2]; 3000 nM): 0.839 | surviving fraction (E31 [3]; 4.1 nM): 0.929 | surviving fraction (E31 [3]; 12.3 nM): 0.922 | surviving fraction (E31 [3]; 37 nM): 1.01 | surviving fraction (E31 [3]; 111.1 nM): 1.02 | surviving fraction (E31 [3]; 333.3 nM): 0.984 | surviving fraction (E31 [3]; 1000 nM): 1.09 | surviving fraction (E31 [3]; 3000 nM): 1.17 | surviving fraction (E34 [4]; 4.1 nM): 0.824 | surviving fraction (E34 [4]; 12.3 nM): 1.02 | surviving fraction (E34 [4]; 37 nM): 0.954 | surviving fraction (E34 [4]; 111.1 nM): 0.957 | surviving fraction (E34 [4]; 333.3 nM): 0.909 | surviving fraction (E34 [4]; 1000 nM): 0.932 | surviving fraction (E34 [4]; 3000 nM): 0.766 | surviving fraction (E57 [5]; 4.1 nM): 0.975 | surviving fraction (E57 [5]; 12.3 nM): 0.945 | surviving fraction (E57 [5]; 37 nM): 0.995 | surviving fraction (E57 [5]; 111.1 nM): 0.972 | surviving fraction (E57 [5]; 333.3 nM): 1.07 | surviving fraction (E57 [5]; 1000 nM): 1.03 | surviving fraction (E57 [5]; 3000 nM): 0.934 | surviving fraction (E21 [6]; 4.1 nM): 0.956 | surviving fraction (E21 [6]; 12.3 nM): 1.01 | surviving fraction (E21 [6]; 37 nM): 1.03 | surviving fraction (E21 [6]; 111.1 nM): 0.956 | surviving fraction (E21 [6]; 333.3 nM): 0.962 | surviving fraction (E21 [6]; 1000 nM): 0.952 | surviving fraction (E21 [6]; 3000 nM): 0.859 | surviving fraction (E13 [7]; 4.1 nM): 0.897 | surviving fraction (E13 [7]; 12.3 nM): 0.833 | surviving fraction (E13 [7]; 37 nM): 0.964 | surviving fraction (E13 [7]; 111.1 nM): 0.887 | surviving fraction (E13 [7]; 333.3 nM): 0.841 | surviving fraction (E13 [7]; 1000 nM): 0.82 | surviving fraction (E13 [7]; 3000 nM): 0.799 | phenotypic distance (FT3469 [8]; 4.1 nM): 0.821 | phenotypic distance (FT3469 [8]; 12.3 nM): 0.617 | phenotypic distance (FT3469 [8]; 37 nM): 0.893 | phenotypic distance (FT3469 [8]; 111.1 nM): 0.999 | phenotypic distance (FT3469 [8]; 333.3 nM): 1.06 | phenotypic distance (FT3469 [8]; 1000 nM): 0.92 | phenotypic distance (FT3469 [8]; 3000 nM): 1.39 | phenotypic distance (E28 [9]; 4.1 nM): 0.745 | phenotypic distance (E28 [9]; 12.3 nM): 0.557 | phenotypic distance (E28 [9]; 37 nM): 0.545 | phenotypic distance (E28 [9]; 111.1 nM): 0.553 | phenotypic distance (E28 [9]; 333.3 nM): 0.469 | phenotypic distance (E28 [9]; 1000 nM): 0.567 | phenotypic distance (E28 [9]; 3000 nM): 0.697 | phenotypic distance (E31 [10]; 4.1 nM): 0.532 | phenotypic distance (E31 [10]; 12.3 nM): 0.425 | phenotypic distance (E31 [10]; 37 nM): 0.596 | phenotypic distance (E31 [10]; 111.1 nM): 0.731 | phenotypic distance (E31 [10]; 333.3 nM): 1.14 | phenotypic distance (E31 [10]; 1000 nM): 1.17 | phenotypic distance (E31 [10]; 3000 nM): 1.4 | phenotypic distance (E34 [11]; 4.1 nM): 1.17 | phenotypic distance (E34 [11]; 12.3 nM): 0.4 | phenotypic distance (E34 [11]; 37 nM): 0.413 | phenotypic distance (E34 [11]; 111.1 nM): 0.586 | phenotypic distance (E34 [11]; 333.3 nM): 0.864 | phenotypic distance (E34 [11]; 1000 nM): 0.895 | phenotypic distance (E34 [11]; 3000 nM): 1.02 | phenotypic distance (E57 [12]; 4.1 nM): 0.709 | phenotypic distance (E57 [12]; 12.3 nM): 0.952 | phenotypic distance (E57 [12]; 37 nM): 0.398 | phenotypic distance (E57 [12]; 111.1 nM): 0.55 | phenotypic distance (E57 [12]; 333.3 nM): 0.671 | phenotypic distance (E57 [12]; 1000 nM): 0.779 | phenotypic distance (E57 [12]; 3000 nM): 1.99 | phenotypic distance (E21 [13]; 4.1 nM): 0.971 | phenotypic distance (E21 [13]; 12.3 nM): 4.31 | phenotypic distance (E21 [13]; 37 nM): 0.531 | phenotypic distance (E21 [13]; 111.1 nM): 0.857 | phenotypic distance (E21 [13]; 333.3 nM): 1.11 | phenotypic distance (E21 [13]; 1000 nM): 0.859 | phenotypic distance (E21 [13]; 3000 nM): 1.68 | phenotypic distance (E13 [14]; 4.1 nM): 0.507 | phenotypic distance (E13 [14]; 12.3 nM): 0.659 | phenotypic distance (E13 [14]; 37 nM): 0.68 | phenotypic distance (E13 [14]; 111.1 nM): 0.822 | phenotypic distance (E13 [14]; 333.3 nM): 1.02 | phenotypic distance (E13 [14]; 1000 nM): 1.17 | phenotypic distance (E13 [14]; 3000 nM): 0.957
